What was measured:
[1] = test system: human lung cancer cell line (A549); test: Inhibition of cancer cell line proliferation, A549; format: cell-based; conditions: 96 h, 3˜4 days incubation, absorbance at 515 nm
Experimental: (§1) For measuring the proliferation inhibition by indirubin compound, the method disclosed in K. Likhitwitayawuid et al. Journal. Nat. Prod. […] Followings are simple description of this method. The cancer cell line is diluted into 5×10^4 cfu/ml. Then, various concentrations of test compounds are added to 96 well microtiter plate containing diluted cell line. After incubating test plate for 3˜4 days at 37° C., the test plate is dried and Tris-base is added. Then, using ELISA plate detector, the absorbance at 515 nm is measured. IC50 is measured by non-linear regression method.

[2] = test system: human stomach cancer cell line (SNU-638); test: Inhibition of cancer cell line proliferation, SNU-638; format: cell-based; conditions: 96 h, 3˜4 days incubation, absorbance at 515 nm
Experimental: as §1

[3] = test system: human colon cancer cell line (Col2); test: Inhibition of cancer cell line proliferation, Col2; format: cell-based; conditions: 96 h, 3˜4 days incubation, absorbance at 515 nm
Experimental: as §1

[4] = test system: human cell line (HT 1080); test: Inhibition of cancer cell line proliferation, HT 1080; format: cell-based; conditions: HT-1080, 96 h, read-out: IC50 HT108
Experimental: as §1

[5] = test system: human leukemia cell line (HL-60); test: Inhibition of cancer cell line proliferation, HL-60; format: cell-based; conditions: HL-60, 96 h, HL60, 3˜4 days incubation, absorbance at 515 nm
Experimental: as §1

human cancer cell line = test: Inhibition of cancer cell line proliferation, overall conclusion; format: cell-based; conditions: conclusion from Table 2
Experimental: as §1

[6] = test system: leukemia cell line (HL-60); test: Differentiation inducing effect, NBT reduction method; format: cell-based, human; conditions: for % of Differentiation: 3 days
Experimental: For measuring the differentiation inducing effect to acute bone merrow leukemia cell line (HL-60) by indirubin AGM compound, NBT (nitroblue tetrazolium) reduction reaction method is employed. The leukemia cell line is diluted into 2×10^5 cfu/ml. […] Incubated cells are washed with phosphate buffered saline (PBS). Then, they are further incubated in PBS solution containing 0.1% NBT and 200 ng/ml of PMA (phorbol 12-myristate 13-acetate) for 30 minutes at 37° C. Incubated cells are centrifuged and collected cells are washed with PBS solution. Using cell number counter, differentiated cells forming nitroblue formazan among total cells are counted.

[7] = test system: human leukemia cell line (HL-60); test: Differentiation with low concentration 1,25-(OH)2D3 or ATRA, NBT reduction method; format: cell-based
Experimental: For measuring the differentiation inducing effect to acute bone merrow leukemia cell line (HL-60) by indirubin AGM compound, NBT (nitroblue tetrazolium) reduction reaction method is employed. The leukemia cell line is diluted into 2×10^5 cfu/ml. After treating 20 μM and 1 μM concentrations of test compounds, test plate is incubated for 3 days at 37° C. in 5% CO2 incubator. Incubated cells are washed with phosphate buffered saline (PBS). Then, they are further incubated in PBS solution containing 0.1% NBT and 200 ng/ml of PMA (phorbol 12-myristate 13-acetate) for 30 minutes at 37° C. Incubated cells are centrifuged and collected cells are washed with PBS solution. Using cell number counter, differentiated cells forming nitroblue formazan among total cells are counted.
Next, we test if AGM compound of present invention can synergically induce the differentiation of acute bone merrow leukemia cell line when it is treated with low concentration of 1,25-dihydroxyvitamin D3[1,25-(OH)2D3] or all-trans retinoic acid (ATRA) known as differentiation inducing agent. […] […] As a positive control, conventional differentiation inducing agent is used.

RK3E-Ras cells [8] = test: Cell viability by MTT assay; format: cell-based, rat; conditions: 1, 10, 20, 40 μM, 6, 12, 24, 48 hours
Experimental: To measure the influence to cell viability by indirubin derivative, RK3E-Ras cell, 1×10^5/well is seeding on 24 well plate. After incubation of cells for 12˜24 hours, indirubin derivative 011 in various concentration (1 μM, 10 μM, 20 μM, 40 μM) are treated for 6, 12, 24, 48 hours respectively. As control, cells without treating any compound are employed. […] FIG. 1 show the decline of cell viability after treatment of indirubin derivative 011.
According to the same condition in Example 3, other indirubin derivative 012, 030 are treated to measure the influence to cell viability.

RK3E-Ras cells [9] = test: Annexin-V-FLUOS/propidium iodide double staining assay for apoptosis; format: cell-based, rat; conditions: 1 μM, 24 hours
Experimental: Annexin-V-FLUOS/propidium iodide double staining assay is a sensitive method for measuring apoptosis in cell level by detecting exposed phosphatidyl serine in apoptotic cell membrane.
RK3E-Ras cell is seeding in 6×10^5 level on cover side. Indirubin derivatives 011, 012 and 030 are treated in 1 μM concentration for 24 hours. As a control, cells without treating any compound are employed. After 24 hours, cells are annexin-V-FLUOS/propidium iodide double stained using annexin-V-FLUOS staining kit. […] It is confirmed that apoptosis of cells treated with indirubin derivatives 011, 012 and 030 is processed.

RK3E-ras solid tumor [10] = test: Tumor suppression in RK3E-ras tumor induced rats; format: in vivo; conditions: Sprague Dawley rat; 100 mM injected 5 times in every other day
Experimental: RK3E cell is one of rat kidney cell and it is immortalized by EA1 oncogene. […] Inventors prepares stable RK3E-k-ras cell line by infection of retroviral expression vector to express mutant k-ras of oncogene. Prepared cell line is intramuscularly infected to Sprague Dawley rat to induce tumor. […] Tumor suppression effect by indirubin derivatives 011, 012 and 030 is measured through tumor induced rats.
(§2) 1×10^7 of RK3E-ras cells is injected to Sprague Dawley rat to induce solid tumor for 5 days and experimental groups of animals are employed by size and volume of tumor in these animals. 100 mM of indirubin derivative is injected to experimental group of animals 5 times in every other day.
Tumor is measured by vernier caliper and the volume of tumor is calculated by Carlsso calculation method {V=1/2(a.b^2), a: long axis, b: short axis}.

RK3E-ras solid tumor [11] = test: Histological appearance of tumor lesion, H&E stain; format: in vivo, Sprague Dawley rat; conditions: rat tumor tissue
Experimental: as §2
To observe histological appearance of tumor lesion after indirubin derivatives 011, 012 and 030 treatment, tumor tissue is immobilized in para-formaldehyde solution and is treated with paraffin. Then, H&E stain is carried out. […] From this experiment, indirubin derivatives of the present invention induce apoptosis of tumor, which results in the suppression of tumor formation in tissue level. FIG. 8 is photography showing the appearance of tumor lesion after treating indirubin derivatives 011, 012 and 030 of present invention.

[12] = test system: human abdominal cavity cancer cell line (HT 1080); test: Inhibition of cancer cell line proliferation, HT 1080; format: cell-based; conditions: HT-1080, 96 h, HT108, 3˜4 days incubation, absorbance at 515 nm
Experimental: as §1

[13] = 1 μM compound with 5 nM of 1,25-(OH)2D3
[14] = 1 μM compound with 50 nM of ATRA

SMILES: O=C1Nc2ccc(F)cc2C1=C1Nc2ccccc2C1=NO [AGM012, 5′-fluoro-1H,1′H-[2,3′] biindolylidene-3,2′-dione 3-oxime]
- IC50 [1]: 13.2 µM
- IC50 [2]: 2.06 µM
- IC50 [3]: 64.2 µM
- IC50 [4]: 3.41 µM
- IC50 [5]: 89.3 µM
- inhibitor against proliferation of human cancer cell line (human cancer cell line): effective inhibitor
- % of Differentiation ([6]; 1 μM compound): 32.71 ± 1.73%
- % of Differentiation, 1,25-(OH)2D3 [7, 13]: 24.29 ± 1.34%
- % of Differentiation, all-trans RA [7, 14]: 54.81 ± 1.65%
- cell viability according to increase of compound concentration (RK3E-Ras cells [8]): rapid decline of cell viability
- annexin-V green fluorescence staining versus control (RK3E-Ras cells [9]): far more stained by green fluorescence than cells of control group
- size and volume of tumor (RK3E-ras solid tumor [10]): decrease
- histological appearance of tumor lesion (RK3E-ras solid tumor [11]): necrosis or calcification of tumor is observed

SMILES: O=C1Nc2ccc(Cl)cc2C1=C1Nc2ccccc2C1=NO [AGM014, 5′-chloro-1H,1′H-[2,3′] biindolylidene-3,2′-dione 3-oxime]
- IC50 [1]: 12.1 µM
- IC50 [2]: 6.22 µM
- IC50 [3]: 16.8 µM
- IC50 [12]: 10.8 µM
- IC50 [5]: 4.81 µM
- inhibitor against proliferation of human cancer cell line (human cancer cell line): effective inhibitor
- % of Differentiation ([6]; 1 μM compound): 40.97 ± 1.19%
- % of Differentiation, 1,25-(OH)2D3 [7, 13]: 21.72 ± 1.22%
- % of Differentiation, all-trans RA [7, 14]: 72.40 ± 3.05%

SMILES: O=C1Nc2ccc([N+](=O)[O-])cc2C1=C1Nc2ccc(Br)cc2C1=NO [AGM023, 5-bromo-5′-nitro-1H,1′H-[2,3′] biindolylidene-3,2′-dione 3-oxime]
- IC50 [1]: 23.2 µM
- IC50 [2]: 12.1 µM
- IC50 [3]: 44.2 µM
- IC50 [12]: 4.41 µM
- IC50 [5]: 69.3 µM
- inhibitor against proliferation of human cancer cell line (human cancer cell line): effective inhibitor
- % of Differentiation ([6]; 0.2 μM compound): 18.38 ± 0.27%
- cytotoxicity [7]: some cytotoxicity
- induction of differentiation with conventional differentiation inducing agent ([7]; 0.2 μM): high induction of differentiation
- % of Differentiation, 1,25-(OH)2D3 ([7]; 0.2 μM compound with 5 nM of 1,25-(OH)2D3): 89.76 ± 0.88%
- % of Differentiation, all-trans RA ([7]; 0.2 μM compound with 50 nM of ATRA): 90.85 ± 0.36%

SMILES: O=C1Nc2ccc(Cl)cc2C1=C1Nc2ccccc2C1=O [AGM025, 5′-chloro-1H,1′H-[2,3′] biindolylidene-3,2′-dione]
- IC50 [1]: > 100 µM
- IC50 [2]: > 100 µM
- IC50 [3]: > 100 µM
- IC50 [4]: > 100 µM
- IC50 [5]: > 100 µM
- % of Differentiation ([6]; 1 μM compound): 26.18 ± 0.59%
- % of Differentiation ([6]; 20 μM compound): 14.40 ± 0.82%
- % of Differentiation, 1,25-(OH)2D3 [7, 13]: 49.41 ± 0.08%
- % of Differentiation, all-trans RA [7, 14]: 48.39 ± 1.48%

SMILES: O=C1Nc2ccc(I)cc2C1=C1Nc2ccccc2C1=O [AGM026, 5′-iodo-1H,1′H-[2,3′] biindolylidene-3,2′-dione]
- IC50 [1]: > 100 µM
- IC50 [2]: > 100 µM
- IC50 [3]: > 100 µM
- IC50 [4]: > 100 µM
- IC50 [5]: > 100 µM
- % of Differentiation ([6]; 1 μM compound): 29.84 ± 1.12%
- % of Differentiation ([6]; 20 μM compound): 22.23 ± 0.60%
- % of Differentiation, 1,25-(OH)2D3 [7, 13]: 44.43 ± 0.09%
- % of Differentiation, all-trans RA [7, 14]: 60.33 ± 0.51%

SMILES: Cc1cc(C)c2c(c1)C(=C1Nc3ccccc3C1=O)C(=O)N2 [AGM027, 5′,7′-dimethyl-1H,1′H-[2,3′] biindolylidene-3,2′-dione]
- IC50 [1]: > 100 µM
- IC50 [2]: > 100 µM
- IC50 [3]: > 100 µM
- IC50 [4]: > 100 µM
- IC50 [5]: > 100 µM
- % of Differentiation ([6]; 1 μM compound): 9.45 ± 0.92%
- % of Differentiation ([6]; 20 μM compound): 4.75 ± 0.41%
- % of Differentiation, 1,25-(OH)2D3 [7, 13]: 21.74 ± 1.90%
- % of Differentiation, all-trans RA [7, 14]: 43.19 ± 1.73%

SMILES: Cc1cc(Cl)cc2c1NC(=O)C2=C1Nc2ccccc2C1=O [AGM028, 5′-chloro-7′-methyl-1H,1′H-[2,3′] biindolylidene-3,2′-dione]
- IC50 [1]: > 100 µM
- IC50 [2]: > 100 µM
- IC50 [3]: > 100 µM
- IC50 [4]: > 100 µM
- IC50 [5]: > 100 µM
- % of Differentiation ([6]; 1 μM compound): 8.85 ± 2.20%
- % of Differentiation ([6]; 20 μM compound): 0.70 ± 0.16%
- % of Differentiation, 1,25-(OH)2D3 [7, 13]: 35.22 ± 0.55%
- % of Differentiation, all-trans RA [7, 14]: 55.57 ± 1.11%

SMILES: Nc1ccc2c(c1)C(=C1Nc3ccccc3C1=O)C(=O)N2 [AGM029, 5′-amino-1H,1′H-[2,3′] biindolylidene-3,2′-dione]
- IC50 [1]: 33.2 µM
- IC50 [2]: 21.1 µM
- IC50 [3]: 31.2 µM
- IC50 [4]: 5.41 µM
- IC50 [5]: 59.3 µM
- inhibitor against proliferation of human cancer cell line (human cancer cell line): effective inhibitor
- % of Differentiation ([6]; 1 μM compound): 45.05 ± 0.59%
- induction of differentiation ([6]; at 20 μM concentration): excellently induces the differentiation
- % of Differentiation, 1,25-(OH)2D3 [7, 13]: 79.03 ± 0.55%
- % of Differentiation, all-trans RA [7, 14]: 78.81 ± 0.77%

SMILES: CC(C)(C)C(=O)Nc1ccc2c(c1)C(=C1Nc3ccccc3C1=NO)C(=O)N2 [AGM030, 5-NH-trimethylacetyl-indirubin-3-oxime]
- cell viability according to increase of compound concentration (RK3E-Ras cells [8]): rapid decline of cell viability
- annexin-V green fluorescence staining versus control (RK3E-Ras cells [9]): far more stained by green fluorescence than cells of control group
- size and volume of tumor (RK3E-ras solid tumor [10]): decrease
- histological appearance of tumor lesion (RK3E-ras solid tumor [11]): necrosis or calcification of tumor is observed

Source: patent publication US7572923B2, “Indirubin derivatives having anticancer property against human cancer cell line” (Anygen Co., Ltd., priority 2004, dated 2009)
